In patent US11980633B2, “Method for treating cancer using a combination of DNA-damaging agents and DNA-PK inhibitors” (Vertex Pharmaceuticals Incorporated, priority 2016, dated 2024):

System: A549 lung cancer cells
Assay: Timing and duration of Compound B-2 exposure on sensitization of A549 cells to doxorubicin hydrochloride (24 h); CellTiterGlo viability at 6 days, Bliss analysis
Assay type: cell-based, human
Set-up: scale not given here
Method: Cell lines, reagents, equipment, software: The human cancer cell line A549 (CCL-185) was obtained from American Type Culture Collection (ATCC; Manassas, VA). Compound B-2 used in these experiments was not prepared as a co-crystal. A 10 mM stock solution of Compound B-2 was prepared in DMSO (ATCC catalog #4-X) and stored at −20° C. Doxorubicin hydrochloride (dox) was obtained from Sigma (St. Louis, MO) (catalog #D1515), dissolved in DMSO to a 10 mM concentration and stored at −20° C.
Cell culture: The A549 human lung cancer cell line was cultured in DMEM (Life Technologies, catalog #11995) supplemented with 10% fetal bovine serum (Hyclone, catalog #SH30071.03), 1× GlutaMAX (Life Technologies, catalog #35050-061), pyruvate (Life Technologies, catalog #11360-070) and 1× Penicillin/Streptomycin (Life Technologies, catalog #15070) (complete medium). Cells were maintained at a sub-confluent state by passaging every 3-4 days. Cells were plated at 1000 cells per well in a 96-well, clear-bottomed microplate (Corning, catalog #3904), and incubated in a 37° C., 5% CO2 incubator attach overnight prior to compound addition.
Treatment with Compound B-2 and Doxorubicin hydrochloride: Ten mM stocks of Compound B-2 and doxorubicin hydrochloride were made in DMSO and added in combination to the plated cells using an HP digital dispenser D300 (Tecan, Switzerland). For these experiments, combinations with Compound B-2 at all concentrations were run in singlicate using a combination matrix in which Compound B-2 was added as a titration from 20 μM to 0.1 μM on the X-axis of the plate and doxorubicin hydrochloride added in a 2-fold dilution from 80 nM to 0.125 nM for the 6 day and 24 hour co-incubation experiments and 8 nM to 0.0125 nM for the rest of the experiments on the Y-axis. One row contained only the Compound B-2 titration and one column only the doxorubicin hydrochloride titration. Two columns of cells were used as a no-treatment control from which the fractional survival of the treated cells was determined. Cells were cultured at 37° C., 5% CO2, 95% air and 100% relative humidity. The timing of compound addition, the washout of the compounds from the wells of the plates and re-addition of doxorubicin hydrochloride was as detailed in FIG. 1. Briefly, the media from all of the wells in the plate were removed by hand using a multi-pipette, fresh (no compound) media was added, then removed again and then fresh media was added one last time. The re-addition of doxorubicin hydrochloride, where indicated, was performed using the HP D300 as outlined in FIG. 1. After 24 h, all plates were washed as detailed above and fresh medium (no compound) added. The plates were incubated for an additional 5 days (6 days in total).
Cell Viability Analysis: Six days after initial compound addition, 50 μL of CellTiterGlo (prepared according to manufacturer's protocol) was added to each well of the compound titration plates. Luminescence was read on a Pherastar FS luminescence reader (BMG Labtech, Offenberg, Germany) and these values were used for all further analyses.
Computational Methods: Cell viabilities were evaluated for a matrix of doxorubicin hydrochloride and Compound B-2 concentrations in a series of experiments testing different times of Compound B-2 addition and durations of Compound B-2 exposure. The data from each of these experiments were analyzed separately. The steps in the analysis of each experiment are described below. • 1. For each Compound B-2 concentration, the EC50 of doxorubicin hydrochloride was calculated using Prism software. The concentration in the matrix of doxorubicin hydrochloride concentrations closest to the EC50 was then identified. • 2. […]

[2H]c1nc(C)nc([2H])c1-c1cc(NC[C@@H](C)c2cccc3c(C(=O)NC)ccnc23)ncn1 [Compound B-2]
Bliss AUC (Experiment A: Compound B-2 added 0 h after doxorubicin hydrochloride, exposure 24 h): 728 | Bliss AUC (Experiment B: Compound B-2 added at 0 h, exposure 16 h): 101 | Bliss AUC (Experiment C: Compound B-2 added at 8 h, exposure 16 h): 710 | Bliss AUC (Experiment E: Compound B-2 added at 4 h, exposure 12 h): 266 | Bliss AUC (Experiment G: Compound B-2 added at 12 h, exposure 12 h): 415 | Bliss AUC (Experiment H: Compound B-2 added at 0 h, exposure 8 h): 71 | Bliss AUC (Experiment I: Compound B-2 added at 4 h, exposure 8 h): 49 | Bliss AUC (Experiment J: Compound B-2 added at 8 h, exposure 8 h): 12 | Bliss AUC (Experiment K: Compound B-2 added at 12 h, exposure 8 h): 124 | Bliss AUC (Experiment L: Compound B-2 added at 16 h, exposure 8 h): 323
